IC50 and response vs control in vivo data for seven compounds are collected here from US8389513B2, “2-amino-5,5-difluoro-5,6-dihydro-4H-[1,3]oxazin-4-yl)-phenyl]-amides” (Hoffmann-La Roche Inc., priority 2009, dated 2013).

A word on the IC50: it is the point on the concentration scale where inhibition reaches its midpoint.

The target in test [1] is T1, recombinant human cathepsin E (Homo sapiens, UniProt P14091).
T1 construct: purchased R&D Systems
T1 sequence (P14091 54-396): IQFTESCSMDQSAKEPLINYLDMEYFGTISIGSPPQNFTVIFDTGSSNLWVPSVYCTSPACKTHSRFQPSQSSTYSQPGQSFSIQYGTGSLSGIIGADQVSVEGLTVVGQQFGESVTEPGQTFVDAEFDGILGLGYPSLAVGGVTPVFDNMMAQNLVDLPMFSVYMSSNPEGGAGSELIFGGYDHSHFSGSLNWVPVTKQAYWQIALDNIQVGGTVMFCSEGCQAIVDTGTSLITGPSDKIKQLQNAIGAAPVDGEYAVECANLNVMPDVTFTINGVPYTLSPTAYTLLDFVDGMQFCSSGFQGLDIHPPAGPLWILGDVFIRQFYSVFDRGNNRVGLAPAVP
The test is described as follows: Cathepsin E fluorescent substrate kinetic assay. The format is biochemical. Conditions: pH 4.5. From the text:
(§1) Cathepsin D and Cathepsin E Fluorescent Substrate Kinetic Assays
The MR121 fluorescence assays described below are based on the fact that MR121 forms a non-fluorescent ground state complex with tryptophan. In solution this formation occurs at millimolar concentrations of tryptophan. The mechanism can be used to design a generic biochemical assay for proteases. […] In absence of protease activity, the substrates remain intact and the MR121 fluorescence is reduced by the high local Trp-concentration. If the substrates are cleaved by the enzymes the MR121 fluorescence is recovered.
The fluorescent substrate cathepsin D and cathepsin E kinetic assays were performed at room temperature in 384-well microtiter plates (black with clear flat bottom, non binding surface plates from Corning) in a final volume of 51 μl. The test compounds were serially diluted in DMSO (15 concentrations, 1/3 dilution steps) and 1 μl of diluted compounds were mixed for 10 min with 40 μl of cathepsin D (from human liver, Calbiochem) diluted in assay buffer (100 mM sodium acetate, 0.05% BSA, pH 5.5; final concentration: 200 nM) or with 40 μl of recombinant human cathepsin E (R&D Systems) diluted in assay buffer (100 mM sodium acetate, 0.05% BSA, pH 4.5; final concentration: 0.01 nM). […] The enzymatic reaction was followed in a plate: vision reader (Perkin Elmer) (excitation wavelength: 630 nm; emission: 695 nm) for at least 30 minutes in a kinetic measurement detecting an increase of MR121 fluorescence during the reaction time. The slope in the linear range of the kinetic was calculated and the IC50 of the test compounds were determined using a four parameter equation for curve fitting.

The next test in a line: in vivo effect. Particulars: po; % of control @ 30 mg/kg p.o.
Test [2] deals with T2, cathepsin D (from human liver) (Homo sapiens, UniProt P07339).
T2 construct: cathepsin D (from human liver, Calbiochem); purchased Calbiochem; host or cells: human liver
T2 sequence (P07339 65-412): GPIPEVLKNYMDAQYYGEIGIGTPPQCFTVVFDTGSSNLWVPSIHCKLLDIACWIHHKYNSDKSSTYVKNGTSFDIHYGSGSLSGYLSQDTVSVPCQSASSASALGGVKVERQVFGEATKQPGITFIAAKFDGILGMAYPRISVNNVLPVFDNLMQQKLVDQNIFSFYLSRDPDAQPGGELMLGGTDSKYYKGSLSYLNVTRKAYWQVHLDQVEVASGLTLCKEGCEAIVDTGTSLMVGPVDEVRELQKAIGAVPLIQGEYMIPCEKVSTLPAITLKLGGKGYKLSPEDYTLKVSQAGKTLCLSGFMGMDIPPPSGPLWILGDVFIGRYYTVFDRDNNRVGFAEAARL
Nature of the test: Cathepsin D fluorescent substrate kinetic assay. The format is biochemical. Particulars: pH 5.5.
Excerpt: as §1
The MR121 fluorescence assays described below are based on the fact that MR121 forms a non-fluorescent ground state complex with tryptophan. In solution this formation occurs at millimolar concentrations of tryptophan. The mechanism can be used to design a generic biochemical assay for proteases. A substrate peptide is labeled at the N-terminus with tryptophan and at the C-terminus with the fluorophore MR121 (for cathepsin D the 10 amino acid peptide […]-MR121 was used; for cathepsin E, MR121-[…] was used). In absence of protease activity, the substrates remain intact and the MR121 fluorescence is reduced by the high local Trp-concentration. If the substrates are cleaved by the enzymes the MR121 fluorescence is recovered.
The fluorescent substrate cathepsin D and cathepsin E kinetic assays were performed at room temperature in 384-well microtiter plates (black with clear flat bottom, non binding surface plates from Corning) in a final volume of 51 μl. The test compounds were serially diluted in DMSO (15 concentrations, 1/3 dilution steps) and 1 μl of diluted compounds were mixed for 10 min with 40 μl of cathepsin D (from human liver, Calbiochem) diluted in assay buffer (100 mM sodium acetate, 0.05% BSA, pH 5.5; final concentration: 200 nM) or with 40 μl of recombinant human cathepsin E (R&D Systems) diluted in assay buffer (100 mM sodium acetate, 0.05% BSA, pH 4.5; final concentration: 0.01 nM). After addition of 10 μl of the cathepsin D substrate […]-MR121 diluted in cathepsin D assay buffer (final concentration: 300 nM) or 10 µl of the cathepsin E substrate MR121-[…] diluted in cathepsin E assay buffer (final concentration: 300 nM), the plates were strongly shaken for 2 minutes. The enzymatic reaction was followed in a plate: vision reader (Perkin Elmer) (excitation wavelength: 630 nm; emission: 695 nm) for at least 30 minutes in a kinetic measurement detecting an increase of MR121 fluorescence during the reaction time. The slope in the linear range of the kinetic was calculated and the IC50 of the test compounds were determined using a four parameter equation for curve fitting.

The target in another test is T3, CYP3A4 (Homo sapiens, UniProt P08684).
T3 construct: 0.2 mg/ml pooled human liver microsomes; from tissue; host or cells: pooled human liver microsomes
T3 sequence (P08684 whole entry): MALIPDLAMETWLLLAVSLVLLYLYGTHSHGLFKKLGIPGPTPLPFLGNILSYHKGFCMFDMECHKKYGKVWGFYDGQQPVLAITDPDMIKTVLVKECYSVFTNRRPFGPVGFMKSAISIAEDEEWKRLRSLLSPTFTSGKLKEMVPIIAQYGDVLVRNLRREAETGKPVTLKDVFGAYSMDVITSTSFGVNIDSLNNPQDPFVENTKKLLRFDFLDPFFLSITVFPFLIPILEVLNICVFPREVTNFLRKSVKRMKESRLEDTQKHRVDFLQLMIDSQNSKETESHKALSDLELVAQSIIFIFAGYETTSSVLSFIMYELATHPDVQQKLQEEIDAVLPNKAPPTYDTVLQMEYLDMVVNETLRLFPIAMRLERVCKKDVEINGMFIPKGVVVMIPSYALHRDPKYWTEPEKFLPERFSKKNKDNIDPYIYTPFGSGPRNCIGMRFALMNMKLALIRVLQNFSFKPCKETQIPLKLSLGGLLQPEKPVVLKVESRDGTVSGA
Nature of the test: CYP inhibition assay, CYP3A4. The format is in vitro ADME. Conditions: human liver microsomes, midazolam; read-out: CYP IC50 3A4. On the procedure: (§2) Inhibition of cytochromes P450 (CYPs) 2C9, 2D6 and 3A4 was assessed using human liver microsomes and CYP-selective substrate metabolism reactions. 50 μl incubations were made up containing (finally) 0.2 mg/ml pooled human liver microsomes, 5 μM substrate (diclofenac for CYP2C9 [4′ hydroxylase], dextromethorphan for CYP2D6 [O-demethylase] or midazolam for CYP3A4 [1′ hydroxylase]), 0.25 μL DMSO containing test inhibitor and NADPH regenerating system. […] Incubations were prewarmed to 37° C. for 10 minutes before initiation by addition of NADPH regenerating system. Incubations were quenched after 5 minutes (20 minutes for dextromethorphan) by addition of 50 μl cold acetonitrile containing 20 ng/ml 4-OH-diclofenac-13C6, 20 ng/mL dextrorphan-D3 and 20 ng/mL 1-OH-midazolam-D4. Quenched incubates were stored at −20° C. for at least 1 hour before centrifugation (20,000×g, 20 minutes). Supernatants were removed and diluted 1:1 with water prior to analysis using a RapidFire sample injector system and API4000 mass spectrometer. Peak areas for substrate, metabolite and stable-labelled metabolite standard were determined using MS/MS. The peak area ratios between the metabolite generated by the enzymatic reaction and the internal standard were used in subsequent calculations. The percentage of (DMSO) control activity was calculated for each incubate and IC50 values estimated by non-linear regression. Sulfaphenazole, quinidine or ketoconazole were tested in each CYP2C9, CYP2D6 or CYP3A4 inhibition experiment, respectively, to ensure assay sensitivity and reproducibility.
In general terms: Liver microsomes are vesicles of endoplasmic reticulum, rich in cytochrome P450 enzymes.

The target in another test is T4, CYP2D6 (Homo sapiens, UniProt P10635).
T4 construct: 0.2 mg/ml pooled human liver microsomes; from tissue; host or cells: pooled human liver microsomes
T4 sequence (P10635 whole entry): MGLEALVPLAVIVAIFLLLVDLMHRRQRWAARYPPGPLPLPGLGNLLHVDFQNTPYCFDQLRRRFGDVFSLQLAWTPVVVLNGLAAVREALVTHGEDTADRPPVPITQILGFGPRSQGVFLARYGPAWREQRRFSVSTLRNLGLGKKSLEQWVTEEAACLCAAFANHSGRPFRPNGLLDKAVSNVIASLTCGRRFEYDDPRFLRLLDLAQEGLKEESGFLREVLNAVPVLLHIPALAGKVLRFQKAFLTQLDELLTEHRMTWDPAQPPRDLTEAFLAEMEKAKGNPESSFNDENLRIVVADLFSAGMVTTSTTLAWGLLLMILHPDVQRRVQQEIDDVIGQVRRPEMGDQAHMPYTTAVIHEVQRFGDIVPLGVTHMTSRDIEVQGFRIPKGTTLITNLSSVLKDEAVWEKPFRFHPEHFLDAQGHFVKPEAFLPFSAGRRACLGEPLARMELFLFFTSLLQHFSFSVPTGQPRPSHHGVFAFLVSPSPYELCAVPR
The test is described as follows: CYP inhibition assay, CYP2D6. The format is in vitro ADME. Conditions: human liver microsomes, dextromethorphan; read-out: CYP IC50 2D6. On the procedure:
as §2

Another test has as its target T5, CYP2C9 (Homo sapiens, UniProt P11712).
T5 construct: 0.2 mg/ml pooled human liver microsomes; from tissue; host or cells: pooled human liver microsomes
Nature of the test: CYP inhibition assay, CYP2C9. Conditions: human liver microsomes, diclofenac; read-out: CYP IC50 2C9. The format is in vitro ADME. The protocol: as §2

T5 sequence (P11712 whole entry): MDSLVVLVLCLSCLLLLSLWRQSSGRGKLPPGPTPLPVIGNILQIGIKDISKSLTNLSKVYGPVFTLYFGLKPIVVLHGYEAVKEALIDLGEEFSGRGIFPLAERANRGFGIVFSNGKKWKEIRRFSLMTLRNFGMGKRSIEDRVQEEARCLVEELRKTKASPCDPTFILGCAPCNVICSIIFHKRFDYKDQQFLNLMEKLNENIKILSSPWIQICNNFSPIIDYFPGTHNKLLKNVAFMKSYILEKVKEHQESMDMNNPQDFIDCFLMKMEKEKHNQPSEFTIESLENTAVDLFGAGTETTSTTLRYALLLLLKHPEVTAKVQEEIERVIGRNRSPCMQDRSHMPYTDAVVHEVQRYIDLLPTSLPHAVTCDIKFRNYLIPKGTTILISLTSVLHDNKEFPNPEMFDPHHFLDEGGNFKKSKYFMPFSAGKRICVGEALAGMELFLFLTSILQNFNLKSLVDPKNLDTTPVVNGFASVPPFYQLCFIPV

With `C[C@]1(c2cc(NC(=O)c3ncc(C(F)(F)F)cc3Cl)ccc2F)N=C(N)OCC1(F)F` [Example 5, 3-Chloro-5-trifluoromethyl-pyridine-2-carboxylic acid [3-((R)-2-amino-5,5-difluoro-4-methyl-5,6-dihydro-4H-[1,3]oxazin-4-yl)-4-fluoro-phenyl]-amide], the IC50 in test [1] was more than 200 µM; in test [2], more than 200 µM; at CYP3A4, more than 10 µM; at CYP2D6, 1 to 10 µM. For the same compound, in the test “in vivo effect”, the response vs control in vivo at 30 mg/kg is less than 50%.

For the compound `CC1(C)OC(N)=N[C@](C)(c2cc(NC(=O)c3ncc(C(F)(F)F)cc3Cl)ccc2F)C1(F)F` [Example 20, 3-Chloro-5-trifluoromethyl-pyridine-2-carboxylic acid [3-((R)-2-amino-5,5-difluoro-4,6,6-trimethyl-5,6-dihydro-4H-[1,3]oxazin-4-yl)-4-fluoro-phenyl]-amide], the concentration for half-maximal inhibition (IC50) on CYP2C9 is 1 to 10 µM; in test [1], more than 200 µM; in test [2] it was more than 200 µM; on CYP3A4, more than 10 µM; on CYP2D6, 1 to 10 µM. In “in vivo effect”, the response vs control in vivo at 30 mg/kg was less than 50%.

For the compound `C[C@]1(c2cc(NC(=O)c3ncc(Cl)cc3Cl)ccc2F)N=C(N)OCC1(F)F` [Example 8, 3,5-Dichloro-pyridine-2-carboxylic acid [3-((R)-2-amino-5,5-difluoro-4-methyl-5,6-dihydro-4H-[1,3]oxazin-4-yl)-4-fluoro-phenyl]-amide], the IC50 at CYP2C9 was more than 10 µM; in test [2], more than 170 µM; on CYP3A4, more than 10 µM; at CYP2D6 it was more than 10 µM. The response vs control in vivo at 30 mg/kg in the test “in vivo effect” was less than 50%.

Take `C[C@]1(c2cc(NC(=O)c3ccc(Cl)cn3)ccc2F)N=C(N)OCC1(F)F` [Example 1, 5-Chloro-pyridine-2-carboxylic acid [3-((R)-2-amino-5,5-difluoro-4-methyl-5,6-dihydro-4H-[1,3]oxazin-4-yl)-4-fluoro-phenyl]-amide]: the IC50 on CYP2C9 was more than 10 µM; in test [1] it was 109 µM; in test [2], more than 200 µM; on CYP3A4, more than 10 µM; at CYP2D6, 1 to 10 µM. The compound also had a response vs control in vivo at 30 mg/kg in the test “in vivo effect” of less than 50%.

On to `CC1(C)OC(N)=N[C@](C)(c2cc(NC(=O)c3ncc(C#N)cc3Cl)ccc2F)C1(F)F` [Example 22, 3-Chloro-5-cyano-pyridine-2-carboxylic acid [3-((R)-2-amino-5,5-difluoro-4,6,6-trimethyl-5,6-dihydro-4H-[1,3]oxazin-4-yl)-4-fluoro-phenyl]-amide], for which the IC50 was more than 10 µM at CYP2C9; more than 200 µM in test [1]; more than 200 µM in test [2]; 1 to 10 µM at CYP3A4; 1 to 10 µM at CYP2D6. Further, the response vs control in vivo at 30 mg/kg in the test “in vivo effect” is less than 50%.

Regarding `C[C@]1(c2cc(NC(=O)c3ncc(C#N)cc3Cl)ccc2F)N=C(N)OCC1(F)F` [Example 39, 3-Chloro-5-cyano-pyridine-2-carboxylic acid [3-((R)-2-amino-5,5-difluoro-4-methyl-5,6-dihydro-4H-[1,3]oxazin-4-yl)-4-fluoro-phenyl]-amide], the IC50 is more than 10 µM at CYP2C9; more than 200 µM in test [1]; more than 200 µM in test [2]; 1 to 10 µM at CYP3A4; more than 10 µM at CYP2D6. In “in vivo effect”, this compound came in with a response vs control in vivo at 30 mg/kg of less than 50%.

For `CC1(C)OC(N)=N[C@](C)(c2cc(NC(=O)c3ccc(C#N)cn3)ccc2F)C1(F)F` [Example 21, 5-Cyano-pyridine-2-carboxylic acid [3-((R)-2-amino-5,5-difluoro-4,6,6-trimethyl-5,6-dihydro-4H-[1,3]oxazin-4-yl)-4-fluoro-phenyl]-amide], the IC50 at CYP2C9 is more than 10 µM; in test [1], more than 200 µM; in test [2], more than 200 µM; at CYP3A4 it was more than 10 µM; on CYP2D6, more than 10 µM. This compound also came in with a response vs control in vivo at 30 mg/kg in the test “in vivo effect” of less than 50%.
